Patent US9321782B2, “Process for preparation of novel 42-O-(heteroalkoxyalkyl) rapamicin compounds with anti-proliferative properties” (MERIL LIFE SCIENCES PVT. LTD., priority 2010, dated 2016)
Where “and” joins values, the source holds several entries; their conditions need not be identical. Equal entries are not always repeated.

Assays:
[1] = Stability analysis (HPLC purity on storage) without BHT at various temperatures; format: physicochemical; conditions: for Purity (%): without BHT
Protocol: (§1) To check the purity of the 42-O-(heteroalkoxyalkyl) rapamycin compounds the following condition was followed by using High Performance Liquid Chromatography, Phenomenex Synergi Hydro-RP 80a (250×4.6 ) mm, 4 micron column. The mobile phase was 65:15:20 methanol:acetonitile:water mixture. The detector was set at 276 nm and the flow rate was adjusted to 1.5 mL/min. Column temperature was 40° C. 2.0 μg of 42-O-(heteroalkoxyalkyl) rapamycin compounds was injected onto the column in a volume of 5.0 μL methanol with run time of 50 min.
The purity loss was higher at increased temperature, but there was no apparent change in the impurity profile. Table 2A presents the purity of various 42-O-(heteroalkoxyalkyl) rapamycin compounds at different time intervals and temperature conditions.

[2] = Stability analysis (HPLC purity on storage) with various concentrations of BHT at 40° C.; format: physicochemical; conditions: sealed container
Protocol: as §1
The inventors have also conducted the stability study of various 42-O-(heteroalkoxyalkyl) rapamycin compounds as mentioned above using various BHT concentrations. The study was conducted at 40° C. temperature in sealed container for 8 weeks.
42-O-(heteroalkoxyalkyl) rapamycin compounds obtained as per procedure described in Example 1 are respectively added with anti-oxidant, namely Butylated Hydroxytoluene (or BHT), at a concentration of 0.1%, 0.2%, 0.5%, and 1.0% (w/w) based on 100% (w/w) of 42-O-(heteroalkoxyalkyl) rapamycin compounds in sealed container to study the stability at 40° C. temperature. […] The purity data with the addition of different amounts of anti-oxidant as added to 42-O-(tetrahydrofuran-3-yl) rapamycin compound, 42-O-(oxetan-3-yl) rapamycin compound and 42-O-(tetrahydropyran-3-yl) rapamycin compound checked at different time intervals are summarized in Table 2B as below mentioned.

[3] = system: L-929 (ATCC cell lines CCL-1, NCTC clone 929) Mus musculus mouse fibroblast cells; assay: In-vitro cytotoxicity test by extraction method; format: cell-based; conditions: extract in contact with L-929 cells for 48 hours
Protocol: In-vitro assessment was done to check the cytotoxic or necrotic potential of the 42-O-(tetrahydrofuran-3-yl) rapamycin and 42-O-(oxetan-3-yl) rapamycin compounds by extraction method. In this study extracts of test substance were kept in contact with a multiple culture of L-929 (ATCC cell lines CCL-1, NCTC clone 929) Mus musculus mouse fibroblast cells for 48 hours. The cells were examined microscopically to assess the changes for its general morphology, vacuolization, detachment, cell lysis and membrane integrity.

rabbit blood [4] = assay: In-vitro haemolysis test; format: cell-based; conditions: for Haemolytic Index, Mean ± S. D.: mean of three test extracts, rabbit blood, 4 hrs
Protocol: Haemolysis test was conducted on rabbit blood by in-vitro method to check the haemolytic effect of 42-O-(tetrahydrofuran-3-yl) rapamycin (Merilimus-1) compound and 42-O-(oxetan-3-yl) rapamycin (Merilimus-2) compound. In this study the extracts of the test substances in triplicate were kept in contact with rabbit blood and incubated for 4 hrs. The concentration of plasma haemoglobin liberated in supernatant was calculated by comparing with absorbance of the standard solution in a spectrophotometer at 540 nm.

rabbit blood [5] = assay: Haemocompatibility test (thrombosis, coagulation, platelet count, leucocyte count); format: cell-based
Protocol: Haemocompatibility test is conducted to evaluate biological safety of the blood contacting 42-O-([…]) rapamycin and 42-O-(oxetan-3-yl) rapamycin compounds for the medical device. The interaction of test substance with rabbit blood was checked for thrombosis, coagulation, platelet count and leucocyte count.

[6] = system: human aorta smooth muscle cell cultures (hAoSMCs); assay: In-vitro anti-proliferative potency, BrdU assay, human smooth muscle cells; format: cell-based; conditions: BrdU incorporation, over 5 orders of magnitude concentration, compared with rapamycin
Excerpt: (§2) In-vitro assessment of relative anti-proliferative effect of novel mTOR inhibitors 42-O-(oxetan-3-yl) rapamycin compound and 42-O-(tetrahydrofuran-3-yl) rapamycin compound with rapamycin was done on human and rabbit smooth muscle cell culture models. In which, human aorta and rabbit illiac artery smooth muscle cell cultures were subjected to increasing doses of 42-O-(oxetan-3-yl) rapamycin compound 42-O-(tetrahydrofuran-3-yl) rapamycin compound and rapamycin over 5 orders of magnitude concentration in the cell culture medium. The ability of the cell culture to reproduce was assessed after drug exposure by addition of a BromodeoxyUridine (BrdU) coloured reagent which causes a colour change in the surviving cells. The extent of colour development was quantified at 450 nm wavelength using a spectrophotometer microplate reader (BMG Labtech, FLUOstar OPTIMA). […] On the contrary, lower OD values reflect less incorporation on BrdU and a shift towards cell inhibition. Growth inhibition was calculated by subtracting positive control OD values, which represent 100% uninhibited growth.

[7] = system: rabbit illiac artery smooth muscle cell cultures (RbIASMCs); assay: In-vitro anti-proliferative potency, BrdU assay, rabbit smooth muscle cells; format: cell-based; conditions: BrdU incorporation, over 5 orders of magnitude concentration, compared with rapamycin
Excerpt: as §2

[8] = test group, individual rabbits No. 1-3

- Stability (in words) ([1]; purified compounds without anti-oxidant): more thermally stable
- Purity (%) ([1]; 5° C. (sealed), 00 weeks after synthesis): 97.7%
- Purity (%) ([1]; 5° C. (sealed), 02 weeks after synthesis): 96.5%
- Purity (%) ([1]; 5° C. (sealed), 04 weeks after synthesis): 95.6%
- Purity (%) ([1]; 5° C. (sealed), 08 weeks after synthesis): 94.8%
- Purity (%) ([1]; 5° C. (sealed), 12 weeks after synthesis): 94.2%
- Purity (%) ([1]; 25° C. (sealed), 00 weeks after synthesis): 97.6%
- Purity (%) ([1]; 25° C. (sealed), 02 weeks after synthesis): 96.2%
- Purity (%) ([1]; 25° C. (sealed), 04 weeks after synthesis): 95.1%
- Purity (%) ([1]; 25° C. (sealed), 08 weeks after synthesis): 94.5%
- Purity (%) ([1]; 25° C. (sealed), 12 weeks after synthesis): 93.9%
- Purity (%) ([1]; 25° C. (unsealed), 00 weeks after synthesis): 97.3%
- Purity (%) ([1]; 25° C. (unsealed), 02 weeks after synthesis): 95.9%
- Purity (%) ([1]; 25° C. (unsealed), 04 weeks after synthesis): 94.8%
- Purity (%) ([1]; 25° C. (unsealed), 08 weeks after synthesis): 94.0%
- Purity (%) ([1]; 25° C. (unsealed), 12 weeks after synthesis): 93.6%
- Purity (%) ([1]; 40° C. (sealed), 00 weeks after synthesis): 97.3%
- Purity (%) ([1]; 40° C. (sealed), 02 weeks after synthesis): 95.5%
- Purity (%) ([1]; 40° C. (sealed), 04 weeks after synthesis): 94.6%
- Purity (%) ([1]; 40° C. (sealed), 08 weeks after synthesis): 93.6%
- Purity (%) ([1]; 40° C. (sealed), 12 weeks after synthesis): 92.7%
- Purity (%) ([2]; BHT 0.0% (w/w), 0 week): 97.3%
- Purity (%) ([2]; BHT 0.0% (w/w), 2 weeks): 95.5%
- Purity (%) ([2]; BHT 0.0% (w/w), 4 weeks): 94.6%
- Purity (%) ([2]; BHT 0.0% (w/w), 8 weeks): 93.6%
- Purity (%) ([2]; BHT 0.1% (w/w), 0 week): 97.7%
- Purity (%) ([2]; BHT 0.1% (w/w), 2 weeks): 97.5%
- Purity (%) ([2]; BHT 0.1% (w/w), 4 weeks): 97.5%
- Purity (%) ([2]; BHT 0.1% (w/w), 8 weeks): 97.5%
- Purity (%) ([2]; BHT 0.2% (w/w), 0 week): 97.6%
- Purity (%) ([2]; BHT 0.2% (w/w), 2 weeks): 97.6%
- Purity (%) ([2]; BHT 0.2% (w/w), 4 weeks): 97.5%
- Purity (%) ([2]; BHT 0.2% (w/w), 8 weeks): 97.5%
- Purity (%) ([2]; BHT 0.5% (w/w), 0 week): 97.6%
- Purity (%) ([2]; BHT 0.5% (w/w), 2 weeks): 97.5%
- Purity (%) ([2]; BHT 0.5% (w/w), 4 weeks): 97.4%
- Purity (%) ([2]; BHT 0.5% (w/w), 8 weeks): 97.4%
- Purity (%) ([2]; BHT 1.0% (w/w), 0 week): 97.6%
- Purity (%) ([2]; BHT 1.0% (w/w), 2 weeks): 97.5%
- Purity (%) ([2]; BHT 1.0% (w/w), 4 weeks): 97.4%
- Purity (%) ([2]; BHT 1.0% (w/w), 8 weeks): 97.4%
- Purity after eight-weeks of storage ([2]; with various concentrations of BHT (concentration not given)): 97.4%
- Haemocompatibility (in words) (rabbit blood [5]; all haematological findings compared to control): haemocompatible
- Coagulation (PTT in sec.) (rabbit blood [5]; [8]): 36 sec. (2×) and 38 sec.
- Differential leucocyte count: Basophile % (rabbit blood [5]; [8]): 00%
- Differential leucocyte count: Eosinophil % (rabbit blood [5]; [8]): 02% (2×) and 01%
- Differential leucocyte count: Lymphocyte % (rabbit blood [5]; [8]): 44% and 50% and 49%
- Differential leucocyte count: Monocyte % (rabbit blood [5]; [8]): 01%
- Differential leucocyte count: Neutrophil % (rabbit blood [5]; [8]): 55% and 48% (2×)
- Distribution of cells: Platelets (rabbit blood [5]; [8]): Normal
- Distribution of cells: RBC (rabbit blood [5]; [8]): Normal
- Distribution of cells: WBC (rabbit blood [5]; [8]): Normal
- Platelet count (rabbit blood [5]; [8]): 4.9 lakhs/cmm and 4.5 lakhs/cmm (2×)
- Thrombosis (rabbit blood [5]; [8]): Nil
Compound: COC1CC(C[C@H](C)[C@@H]2CC(=O)[C@H](C)/C=C(\C)C(O)[C@@H](OC)C(=O)[C@H](C)C[C@H](C)/C=C/C=C/C=C(\C)[C@@H](OC)C[C@@H]3CC[C@@H](C)[C@@](O)(O3)C(=O)C(=O)N3CCCC[C@H]3C(=O)O2)CCC1OC1COC1 (some centres unmarked) [Merilimus-2, 42-O-(oxetan-3-yl) rapamycin]
- Toxic effect on cells (in words) [3]: did not reveal any toxic effect on cells
- Haemolytic Index (rabbit blood [4]; individual test extracts 1-3, rabbit blood, incubated 4 hrs, = Haemoglobin released/Haemoglobin present × 100): 1.9 (2×) and 2.0
- Haemolytic Index, Mean ± S. D. (rabbit blood [4]): 1.9 ± 0.02
- Haemolytic Index, Mean ± S. D. (rabbit blood [4]; listed as 42-O-(oxetan-3-yl) rapamycin): 1.9
- Haemolytic nature (in words) (rabbit blood [4]; on the basis of haemolytic index): non-haemolytic
- Leucocyte count (rabbit blood [5]; [8]): 7.5 Thousand/cmm (2×) and 6.5 Thousand/cmm
- Growth suppression of smooth muscle cells (in words) [6]: more effectively inhibited growth of smooth muscle cells than rapamycin
- Growth suppression of smooth muscle cells (in words) [7]: more effectively inhibited growth of smooth muscle cells than rapamycin
